14 molecules from patent publication US20240360146A1, “BRUTON'S TYROSINE KINASE AND MUTANT DEGRADER, COMPOSITION AND APPLICATION THEREOF” (HANGZHOU HEALZEN THERAPEUTICS CO., LTD., priority 2021, published 2024) can be followed below.

pIC50: −log10 of the molar value.

Data set [1] is described as follows: Stability of compounds in human liver microsome. The data set is classed as in vitro ADME. As to conditions: human liver microsomes, NADPH, 37° C., sampling 0-120 min; read-out: Human liver microsome T1/2. Here is the method: Compound to be tested: the compound to be tested (1 mg) was dissolved in DMSO (10 mL) to formulate to 0.1 mg/mL.
Internal standard compound: the internal standard compound (1 mg) was dissolved in DMSO (10 mL), 10 μL was taken and diluted to 10 mL to formulate to 100 ng/mL.
NADPH solution: NADPH (2.08 mg) was dissolved in PBS (50 μL) buffer to formulate to 50 mM.
Under the condition of ice bath, 1 mg of human liver microparticles was add to PBS (1 mL) buffer, then NADPH (20 μL) was added, and incubated at 37° C. for 5 min. 10 μL of the compound to be tested was added, and then samples were taken at 0, 15, 30, 60 and 120 min respectively. 10 μL of the solution was taken with a pipette each time and added to 490 μL of the solution containing the internal standard compound. The resulting solution was vortexed and then placed on ice, and then sampling at another time point continues. All samples were centrifuged at 10,000 rpm for 10 min, and the supernatant was taken for LC/MS testing. The metabolism of the compound in liver microsomes was calculated based on the peak area.
A general note: Liver microsomes are a subcellular fraction often used to study metabolism.

Data set [2] concerns Mino cells. Briefly: Inhibitory activity on Mino cell proliferation (MTS). Type of data set: cell-based. To be noted: Homo sapiens, 168 h incubation. In short, it runs like this: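 Cells seeded at 10000/well, treated with compounds from 1000 nM (4-fold, 8 points) for 72 h (OCI-LY10) or 168 h (Mino) at 37° C. MTS added for 2 h, stopped with SDS, absorbance read at 490 and 650 nm; IC50 from dose-response fit.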

For data set [3], the target named is T1, BTK (Homo sapiens, UniProt Q06187).
T1 construct: endogenous in cells; host or cells: Mino cells
In words: BTK degradation activity test in Mino cells. Type of data set: cell-based. As to conditions: 16 h incubation, Western blot or Elisa. In short, it runs like this:
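DC50 derived by curve fitting of BTK degradation rates versus untreated control across compound concentrations. Mino cells were exposed for 16 h; BTK levels in lysates, normalised via BCA protein, measured by Western blot or ELISA.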
On the technique in general: A western blot detects proteins with antibodies after separation by electrophoresis.

Data set [4] deals with OCI-LY10 cells. In words: Inhibitory activity on OCI-LY10 cell proliferation (MTS). Type of data set: cell-based. As to conditions: Homo sapiens, 72 h. On the procedure: The anti-tumor efficacy of the compounds was tested by measuring their inhibitory effects on OCI-LY10 and Mino cell proliferation. OCI-LY10 and Mino cells were cultured in RPMI-1640 medium containing 10% fetal calf serum. OCI-LY10 and Mino cells were digested, inoculated in a 96-well plate at a cell concentration of 10000 cells/well, and incubated overnight at 37° C., 5% CO2. Compounds of different concentrations (1000 nM, 4-fold dilution, 8 points) were added to the 96-well plate and incubated for 72 h (LY10) or 168 h (Mino) at 37° C. and 5% CO2, and then 20 uL of MTS was added to each well. After incubation for 2 h, 25 μl of 10% SDS was added to each well to terminate the reaction. The absorbance at 490 nm and 650 nm were measured with a microplate reader. IC50 was calculated using GraphPad Prism 5.0.

The term pIC50 denotes the negative decadic logarithm of the IC50, by convention in mol/L. A lower pIC50 goes with a high IC50. As usually defined, the DC50 is the concentration giving 50% degradation. Read a high DC50 as a less potent degrader.

T1 sequence (Q06187 whole entry): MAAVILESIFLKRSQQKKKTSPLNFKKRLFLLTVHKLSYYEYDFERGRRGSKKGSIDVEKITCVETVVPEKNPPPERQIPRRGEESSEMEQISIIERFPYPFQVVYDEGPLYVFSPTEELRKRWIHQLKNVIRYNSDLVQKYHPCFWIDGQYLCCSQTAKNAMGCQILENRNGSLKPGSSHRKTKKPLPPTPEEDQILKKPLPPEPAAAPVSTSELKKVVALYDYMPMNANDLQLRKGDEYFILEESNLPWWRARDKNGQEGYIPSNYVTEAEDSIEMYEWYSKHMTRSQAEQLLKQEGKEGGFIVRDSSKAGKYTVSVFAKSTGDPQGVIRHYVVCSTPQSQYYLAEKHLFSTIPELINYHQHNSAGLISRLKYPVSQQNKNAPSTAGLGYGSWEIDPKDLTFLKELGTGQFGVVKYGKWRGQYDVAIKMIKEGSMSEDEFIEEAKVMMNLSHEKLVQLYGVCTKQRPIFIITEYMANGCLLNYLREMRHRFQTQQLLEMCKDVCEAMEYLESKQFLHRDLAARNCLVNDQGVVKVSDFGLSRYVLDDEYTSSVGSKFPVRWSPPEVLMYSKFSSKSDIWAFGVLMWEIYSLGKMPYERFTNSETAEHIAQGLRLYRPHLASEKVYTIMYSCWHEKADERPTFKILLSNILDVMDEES

In the case of `CN1CCN([C@@H]2CCCN(c3nnc(C(N)=O)c(Nc4ccc(N5CCN(CC6CCN(c7ccc8c(c7)C(=O)N(C7CCC(=O)NC7=O)C8=O)CC6)CC5)c(F)c4)n3)C2)C1=O` (stereo partly drawn) [Compound 134, 5-((4-(4-((1-(2-(2,6-dioxopiperidin-3-yl)-1,3-dioxoisoindolin-5-yl)piperidin-4-yl)methyl)piperazin-1-yl)-3-fluorophenyl)amino)-3-((R)-3-(3-methyl-2-oxoimidazolin-1-yl)piperidin-1-yl)-1,2,4-triazin-6-carboxamide], the half-life at 0.97 µg/mL in data set [1] is over 30 min. Further, the pIC50 in data set [2] was 8.76. The same molecule displayed a DC50 in data set [3] of under 1 nM.

Regarding `NC(=O)c1nnc(N2CCC[C@@H](N3CCN(CC(F)(F)F)C3=O)C2)nc1Nc1ccc(C2CCN(CC3CCN(c4ccc5c(c4)C(=O)N(C4CCC(=O)NC4=O)C5=O)CC3)CC2)cc1` (stereo partly drawn) [Compound 141, 5-((4-(1-((1-(2-(2,6-dioxopiperidin-3-yl)-1,3-dioxoisoindolin-5-yl)piperidin-4-yl)methyl)piperidin-4-yl)phenyl)amino)-3-((R)-3-(2-oxo-3-(2,2,2-trifluoroethyl)imidazolin-1-yl)piperidin-1-yl)-1,2,4-triazin-6-carboxamide], the figures for the pIC50 in data set [2] and in data set [4] were 8.41 and 8.66, respectively. Moreover, in data set [3], the DC50 was under 1 nM.

Consider `Cc1ccc(C(=O)N2CCC(CN3CCN(c4ccc(Nc5nc(N6CCC[C@@H](N7CCN(C)C7=O)C6)nnc5C(N)=O)cc4F)CC3)C2)cc1N1CCC(=O)NC1=O` (stereo partly drawn) [Compound 150, 5-((4-(4-((1-(3-(2,4-dioxotetrahydropyrimidin-1(2H)-yl)-4-methylbenzoyl)pyrrolidin-3-yl)methyl)piperazin-1-yl)-3-fluorophenyl)amino)-3-((R)-3-(3-methyl-2-oxoimidazolin-1-yl)piperidin-1-yl)-1,2,4-triazin-6-carboxamide], for which, in data set [1], the half-life at 0.97 µg/mL is over 30 min. In data set [2], this molecule gave a pIC50 of 8.72. This molecule also returned a DC50 in data set [3] of under 1 nM.

Consider `CN1CCN([C@@H]2CCCN(c3nnc(C(N)=O)c(Nc4ccc(N5CCN(CC6CCN(c7ccc8c(c7)CN(C7CCC(=O)NC7=O)C8=O)CC6)CC5)c(F)c4)n3)C2)C1=O` (stereo partly drawn) [Compound 167, 5-((4-(4-((1-(2-(2,6-dioxopiperidin-3-yl)-1-oxoisoindolin-5-yl)piperidin-4-yl)methyl)piperazin-1-yl)-3-fluorophenyl)amino)-3-((R)-3-(3-methyl-2-oxoimidazolidin-1-yl)piperidin-1-yl)-1,2,4-triazin-6-carboxamide], for which the pIC50 in data set [2] is 8.62; in data set [4], 9.35. This molecule also displayed a DC50 in data set [3] of under 1 nM.

For `CN1CCN([C@@H]2CCCN(c3nnc(C(N)=O)c(Nc4ccc(N5CCN(CC6CCN(c7ccc8c(c7)C(=O)N(C7CCC(=O)NC7=O)C8)CC6)CC5)c(F)c4)n3)C2)C1=O` (stereo partly drawn) [Compound 168, 5-((4-(4-((1-(2-(2,6-dioxopiperidin-3-yl)-3-oxoisoindolin-5-yl)piperidin-4-yl)methyl)piperazin-1-yl)-3-fluorophenyl)amino)-3-((R)-3-(3-methyl-2-oxoimidazolidin-1-yl)piperidin-1-yl)-1,2,4-triazin-6-carboxamide], the pIC50 in data set [2] was 8.42; in data set [4] it was 9.10. Also, in data set [3], the DC50 was under 1 nM.

As for `CN1CCN([C@@H]2CCCN(c3nnc(C(N)=O)c(Nc4ccc(N5CCN(CC6CCN(c7cc8c(cc7F)C(=O)N(C7CCC(=O)NC7=O)C8=O)CC6)CC5)c(F)c4)n3)C2)C1=O` (stereo partly drawn) [Compound 170, 5-((4-(4-((1-(2-(2,6-dioxopiperidin-3-yl)-6-fluoro-1,3-dioxoisoindolin-5-yl)piperidin-4-yl)methyl)piperazin-1-yl)-3-fluorophenyl)amino)-3-((R)-3-(3-methyl-2-oxoimidazolidin-1-yl)piperidin-1-yl)-1,2,4-triazin-6-carboxamide], the values for the negative logarithm of the IC50 (pIC50) in data set [2] and in data set [4] were 8.33 and 8.90, respectively. For the same molecule, the DC50 in data set [3] is under 1 nM.

On to `CN1CCN([C@@H]2CCCN(c3nnc(C(N)=O)c(Nc4ccc(N5CCN(CC6CCN(c7ccc(C(=O)NC8CCC(=O)NC8=O)nc7)C6)CC5)c(F)c4)n3)C2)C1=O` (stereo partly shown) [Compound 173], for which the half-life at 0.97 µg/mL in data set [1] is over 30 min. Besides, the DC50 in data set [3] was under 1 nM.

As for `CN1CCN([C@@H]2CCCN(c3nnc(C(N)=O)c(Nc4ccc(N5CCN(CC6CCN(c7ccc(C(=O)NC8CCC(=O)NC8=O)c8c7OCO8)CC6)CC5)c(F)c4)n3)C2)C1=O` (stereo partly shown) [Compound 177], the half-life at 0.97 µg/mL in data set [1] is over 30 min. In data set [2], the pIC50 is 8.52. Further, the half-maximal degradation concentration (DC50) in data set [3] is under 1 nM.

With `CN1CCN([C@@H]2CCCN(c3nnc(C(N)=O)c(Nc4ccc(N5CCN(CC6CCN(c7ccc(C(=O)NC8CCC(=O)NC8=O)c8[nH]cnc78)CC6)CC5)c(F)c4)n3)C2)C1=O` (stereo partly drawn) [Compound 179, 4-(4-((4-(4-((6-carbamoyl-3-((R)-3-(3-methyl-2-oxoimidazolidin-1-yl)piperidin-1-yl)-1,2,4-triazin-5-yl)amino)-2-fluorophenyl)piperazin-1-yl)methyl)piperidin-1-yl)-N-(2,6-dioxopiperidin-3-yl)-1Hbenzimidazol-7-carboxamide], in data set [1], the half-life at 0.97 µg/mL was over 30 min. The pIC50 in data set [2] is 8.83. Also, the DC50 in data set [3] is under 1 nM.

For `Cc1cc(N2CCC(CN3CCN(c4ccc(Nc5nc(N6CCC[C@@H](N7CCN(C)C7=O)C6)nnc5C(N)=O)cc4F)CC3)CC2)ccc1C(=O)NC1CCC(=O)NC1=O` (stereo partly drawn) [Compound 180, 5-((4-(4-((1-(4-((2,6-dioxopiperidin-3-yl)carbamoyl)-3-methylphenyl)piperidin-4-yl)methyl)piperazin-1-yl)-3-fluorophenyl)amino)-3-((R)-3-(3-methyl-2-oxoimidazolidin-1-yl)piperidin-1-yl)-1,2,4-triazin-6-carboxamide], the figures for the pIC50 in data set [2] and in data set [4] were 8.97 and over 9.00, respectively. This molecule displayed a DC50 in data set [3] of under 1 nM.

For the molecule `CN1CCN([C@@H]2CCCN(c3nnc(C(N)=O)c(Nc4ccc(N5CCN(CC6CCN(c7ccc(N8CCC(=O)NC8=O)cn7)CC6)CC5)c(F)c4)n3)C2)C1=O` [Compound 196, (R)-5-((4-(4-((1-(5-(2,4-dioxotetrahydropyrimidin-1(2H)-yl)pyridin-2-yl)piperidin-4-yl)methyl)piperazin-1-yl)-3-fluorophenyl)amino)-3-(3-(3-methyl-2-oxoimidazolidin-1-yl)piperidin-1-yl)-1,2,4-triazin-6-carboxamide], the negative-log IC50 (pIC50) in data set [2] was 8.42; in data set [4], 9.28. In data set [3], this molecule registered a DC50 of under 1 nM.

For `CN1CCN([C@@H]2CCCN(c3nnc(C(N)=O)c(Nc4ccc(N5CCN(CC6CCN(c7ccc(NC8CCC(=O)NC8=O)nc7)CC6)CC5)c(F)c4)n3)C2)C1=O` (stereo partly drawn) [Compound 202, 5-((4-(4-((1-(6-((2,6-dioxopiperidin-3-yl)amino)pyridin-3-yl)piperidin-4-yl)methyl)piperazin-1-yl)-3-fluorophenyl)amino)-3-((R)-3-(3-methyl-2-oxoimidazolidin-1-yl)piperidin-1-yl)-1,2,4-triazin-6-carboxamide], the pIC50 in data set [2] is 8.17; in data set [4], 8.98. Moreover, in data set [3], the DC50 is under 1 nM.

Take `CN1CCN([C@@H]2CCCN(c3nnc(C(N)=O)c(Nc4ccc(N5CCN(CC6CCN(c7ccc(NC8CCC(=O)NC8=O)cn7)CC6)CC5)c(F)c4)n3)C2)C1=O` (stereo partly drawn) [Compound 203, 5-((4-(4-((1-(5-((2,6-dioxopiperidin-3-yl)amino)pyridin-2-yl)piperidin-4-yl)methyl)piperazin-1-yl)-3-fluorophenyl)amino)-3-((R)-3-(3-methyl-2-oxoimidazolidin-1-yl)piperidin-1-yl)-1,2,4-triazin-6-carboxamide]: the pIC50 was 8.90 in data set [2] and 8.58 in data set [4]. Further, the DC50 in data set [3] was under 1 nM.

Take `CN1CCN([C@@H]2CCCN(c3nnc(C(N)=O)c(Nc4ccc(N5CCN(CC6CCN(c7ccc8c(c7)n(C)c(=O)n8C7CCC(=O)NC7=O)C6)CC5)c(F)c4)n3)C2)C1=O` (stereo partly drawn) [Compound 218, 5-((4-(4-((1-(1-(2,6-dioxopiperidin-3-yl)-3-methyl-2-oxo-2,3-dihydro-H-benzo[d]imidazol-5-yl)pyrrolidin-3-yl)methyl)piperazin-1-yl)-3-fluorophenyl)amino)-3-((R)-3-(3-methyl-2-oxoimidazolidin-1-yl)piperidin-1-yl)-1,2,4-triazin-6-carboxamide]: the half-life at 0.97 µg/mL in data set [1] is over 30 min. The same molecule showed a DC50 in data set [3] of under 1 nM.
